System: Culture A83850 (Amycolatopsis albus NRRL 18532)
Assay: Resistance of culture A83850 to antibiotics, sensitivity discs on seeded ISP No. 2 agar plates
Assay type: cell-based
Conditions: disc content printed per antibiotic
Description: Resistance to antibiotics was measured by padding antibiotic sensitivity discs onto the surface of seeded ISP No. 2 agar plates.

Row | Molecule | Resistance or inhibition of culture A83850 by antibiotic disc
1 | CO[C@H]1C[C@H](O[C@H]2[C@H](C)[C@@H](O[C@@H]3O[C@H](C)C[C@H](N(C)C)[C@H]3O)[C@@H](C)C[C@@]3(CO3)C(=O)[C@H](C)[C@@H](O)[C@@H](C)[C@@H](C)OC(=O)[C@@H]2C)O[C@@H](C)[C@@H]1O [oleandomycin] | resistant
2 | CC1(C)S[C@@H]2[C@H](NC(=O)Cc3ccccc3)C(=O)N2[C@H]1C(=O)O [penicillin] | inhibited
3 | CO[C@H]1/C=C/O[C@@]2(C)Oc3c(C)c(O)c4c(O)c(c(/C=N/N5CCN(C)CC5)c(O)c4c3C2=O)NC(=O)/C(C)=C\C=C\[C@H](C)[C@H](O)[C@@H](C)[C@@H](O)[C@@H](C)[C@H](OC(C)=O)[C@@H]1C [rifampin] | resistant
4 | [H]/N=C(/N)N[C@H]1[C@H](O)[C@@H](O)[C@H](O[C@@H]2O[C@@H](C)[C@](O)(C=O)[C@H]2O[C@@H]2O[C@@H](CO)[C@H](O)[C@@H](O)[C@@H]2NC)[C@@H](N/C(N)=N\[H])[C@@H]1O [streptomycin] | inhibited
5 | CN(C)[C@@H]1C(O)=C(C(N)=O)C(=O)[C@@]2(O)C(O)=C3C(=O)c4c(O)cccc4[C@@](C)(O)[C@H]3C[C@@H]12 [tetracycline] | resistant
6 | NC[C@H]1O[C@H](O[C@H]2[C@H](O)[C@@H](O[C@H]3O[C@H](CO)[C@@H](O)[C@H](N)[C@H]3O)[C@H](N)C[C@@H]2N)[C@H](N)C[C@@H]1O [tobramycin] | inhibited
7 | gentamicin | inhibited
8 | neomycin | resistant

Source: US5187082A, “Process for producing A83850 antibiotics” (Eli Lilly and Company, priority 1990, dated 1993)
